How the values were obtained:
[1] = system: carrageenan foot edema; assay: Rat Carrageenan Foot Pad Edema Test; type: in vivo, Male Sprague-Dawley rats; settings: @ 30mg/kg body weight; dosed orally one hour before carrageenan; foot volume three hours after injection
[2] = Analgesia (Table I; method not described); type: in vivo; settings: @ 30mg/kg body weight
[3] = target: COX-1 (Homo sapiens, UniProt P23219); type: biochemical, human or murine
COX-1, sequence (P23219 24-599): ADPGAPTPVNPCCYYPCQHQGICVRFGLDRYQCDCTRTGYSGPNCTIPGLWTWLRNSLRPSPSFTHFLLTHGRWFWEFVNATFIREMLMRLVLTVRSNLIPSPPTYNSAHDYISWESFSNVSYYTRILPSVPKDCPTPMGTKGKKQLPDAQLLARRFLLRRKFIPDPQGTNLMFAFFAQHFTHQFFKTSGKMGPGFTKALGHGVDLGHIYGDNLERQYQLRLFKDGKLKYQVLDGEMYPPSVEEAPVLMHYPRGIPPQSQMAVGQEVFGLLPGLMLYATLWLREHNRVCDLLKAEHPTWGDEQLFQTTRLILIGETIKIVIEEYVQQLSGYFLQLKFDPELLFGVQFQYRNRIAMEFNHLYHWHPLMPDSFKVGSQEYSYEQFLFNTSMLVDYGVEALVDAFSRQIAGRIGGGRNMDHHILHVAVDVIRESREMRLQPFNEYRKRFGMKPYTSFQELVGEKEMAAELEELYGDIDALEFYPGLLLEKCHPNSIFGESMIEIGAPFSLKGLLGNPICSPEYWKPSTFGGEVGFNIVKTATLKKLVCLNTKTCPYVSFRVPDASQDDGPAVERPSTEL

With CS(=O)(=O)c1ccc(-n2cccc2-c2ccc(F)cc2)cc1 [Example 8, 2-(4-Fluorophenyl)-1-[4-(methylsulfonyl)phenyl]-1H-pyrrole] the “RAT PAW EDEMA % Inhibition” value [1] was 56% and the “ANALGESIA % Inhibition” value [2] was 47%.
In the case of NS(=O)(=O)c1ccc(-n2cccc2-c2ccc(F)cc2)cc1 [Example 9, 4-[2-(4-Fluorophenyl)-1H-pyrrol-1-yl]benzenesulfonamide], the IC50 [3] is reported as 10.4 µM.

From patent publication EP1369415A1, “Substituted pyrrolyl compounds for the treatment of inflammation” (G.D. SEARLE & CO., priority 1996, dated 1998)
